In one data set the target is T1, RORγt (Homo sapiens, UniProt P51449).
T1 sequence (P51449 263-518 limits assumed): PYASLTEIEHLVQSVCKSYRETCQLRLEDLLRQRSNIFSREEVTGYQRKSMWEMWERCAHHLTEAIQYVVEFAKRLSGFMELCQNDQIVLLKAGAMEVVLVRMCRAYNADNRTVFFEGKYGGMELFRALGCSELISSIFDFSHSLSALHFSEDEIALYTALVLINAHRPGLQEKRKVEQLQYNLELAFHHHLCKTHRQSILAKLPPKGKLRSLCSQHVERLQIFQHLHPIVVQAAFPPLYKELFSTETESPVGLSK
T1 sequence (Q15788 676-700 partner limits assumed): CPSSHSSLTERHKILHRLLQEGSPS
Put plainly: RORγt dual FRET assay. In kind it is biochemical. As for the experimental part:
The assay was performed according to a previous study. The plates were incubated for 1 h at room temperature and then read on Envision in LANCE mode configured for the europeum-APC labels.

For a further data set, the target named is T2, RORα (Homo sapiens, UniProt P35398).
T2 construct: expressed in transfected cells
T2 sequence (P35398 1-523): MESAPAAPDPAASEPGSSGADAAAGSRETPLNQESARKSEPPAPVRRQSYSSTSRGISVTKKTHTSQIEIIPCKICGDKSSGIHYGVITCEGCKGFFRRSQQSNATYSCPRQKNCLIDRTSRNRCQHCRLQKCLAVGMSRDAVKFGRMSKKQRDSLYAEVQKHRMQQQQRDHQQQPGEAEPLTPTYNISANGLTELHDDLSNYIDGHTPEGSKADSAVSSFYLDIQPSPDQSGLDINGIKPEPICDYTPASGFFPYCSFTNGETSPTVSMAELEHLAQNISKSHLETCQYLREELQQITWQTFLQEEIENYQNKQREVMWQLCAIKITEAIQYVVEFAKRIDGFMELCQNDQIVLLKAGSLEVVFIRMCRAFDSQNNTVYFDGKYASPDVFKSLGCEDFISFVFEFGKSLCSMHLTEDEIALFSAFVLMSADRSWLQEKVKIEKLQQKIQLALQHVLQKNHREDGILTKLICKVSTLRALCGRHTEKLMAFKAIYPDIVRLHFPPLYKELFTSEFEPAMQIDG
Put plainly: RORα Gal4 reporter gene assay. In kind it is cell-based. In general terms: In a reporter assay the amount or activity of a reporter protein is the signal.

The nature of data set [1]: Pharmacokinetics in C57BL/6 mice. In kind it is in vivo. The following applies: male, C57BL/6, mouse, plasma; for Tmax: n = 3. The protocol:
Male C57BL/6 mice were divided into two groups: 8-074 single intravenous injection group (2 mg/kg, n = 3) and 8-074 single gavage group (5 mg/kg, n = 3). After administration, blood samples were collected at 0.25, 0.5, 1, 2, 5, 7, and 24 h. Then the plasma samples were separated and stored at − 80 °C until the analysis. After being thawed at room temperature, 10 μL of plasma samples were added with 150 μL of precipitant containing the internal standard (verapamil 40 ng/mL) for the protein precipitation. The supernatant was mixed with a suitable volume of water and then analyzed using liquid chromatography in tandem with mass spectrometry (LC-MS/MS). The concentration of 8–074 in the plasma of the C57 mice after administration was determined using the inter-run standard curve samples (linear range of 3–10,000 ng/mL) and quality control samples.

The subject of another data set is B cells. Put plainly: B cell activation markers by qPCR. The format is cell-based. The note with it: compared with the vehicle. As for the experimental part:
The intracellular cytokines by TILs or in vitro differentiated T helper cells were quantified after restimulation with PMA plus ionomycin in the presence of GolgiStop for 6 h. The total RNA was isolated using the improved TRizol-based (Sigma, Darmstadt, Germany) method for qPCR analysis, and the mRNA expression was analyzed using a StepOnePlus (Life Technologies, Carlsbad, USA) real-time PCR instrument using housekeeping gene β-actin and Gapdh internal standards. qPCR was performed using A Power SYBR Green PCR Master Mix (Accurate Biology, Hunan, China) and two-cycle amplification for 40 cycles followed by the melting curve. The sequence of primers is listed in the Additional file 6: Table S1. In addition, the cytokines were quantified in cell-free culture supernatants using enzymelinked immunosorbent assay (ELISA) kit (the optical density (OD) value was measured at 450 nm, using 570 nm or 630 nm as the reference wavelengths, Multisciences, Hangzhou, China). The kit was used according to the manufacturer’s instructions.
To confirm the in vitro specificity of 8-074, splenocytes from C57BL/6 wild-type mice were activated by plate-bound anti-CD3 and anti-CD28 antibodies and polarized with anti-IL-4 and IL-12 to obtain Th1 cells. IFN-γ, a signature cytokine of Th1 cells, was not affected by LYC-55716 or 8-074 compared with vehicle alone (Fig. 2j, Fig. S2g).

This note sets out measurements from article PMC9034499, “RORγt agonist enhances anti-PD-1 therapy by promoting monocyte-derived dendritic cells through CXCL10 in cancers” (Journal of Experimental & Clinical Cancer Research : CR, 2022).

Where only a bound is given, the exact number is not on record here.

The EC50 is the concentration needed to bring the measured effect to its halfway point. Low readings indicate higher potency in that assay, high ones lower potency in that assay. As usually defined, the MRT inf is a mean duration of stay, worked out from the concentration-time curve. One may read the AUC(0-inf) as the area under the concentration-time curve extrapolated to infinity. As usually defined, the AUC(0-t) is the area under the concentration-time curve up to a stated or last time point. Low readings indicate low exposure, high ones high exposure. One may read the Cmax as the maximum level reached in the sampled fluid or tissue. One may read the clearance as a measure of how efficiently the substance is removed, as volume per time. A high value points to efficient removal. As usually defined, the Tmax is the time at which the peak concentration occurs. A word on the bioavailability: it is the share of a dose that reaches the circulation, judged against a reference dose that is usually intravenous. The low end stands for poor availability, the high end for good availability. As a reminder, the half-life is how long it takes for the measured level to halve. Read a low half-life as fast loss. The AUC is concentration integrated over time. Take `CCS(=O)(=O)c1ccc(CC(=O)Nc2ccc(-c3ccc(CC(C)C)c(C#N)c3)c(C(F)(F)F)c2)cc1` [8-074]: the EC50 on RORγt was 19.9 nM; on RORα it was above 10000 nM. Moreover, the “RORγt dual FRET %max” value on RORγt (maximal activation) is listed as 199%. Also, the MRT inf in data set [1] (iv, 2 mg/kg, i.v. 2 mg/kg, first MRTINF line (r8)) is 3.84 ± 0.33 h; in data set [1] (iv, 2 mg/kg, i.v. 2 mg/kg, second MRTINF line (r9)), 2.97 ± 0.25 h; in data set [1] (po, 5 mg/kg, i.g. 5 mg/kg, first MRTINF line (r8)), 4.49 ± 1.2 h; in data set [1] (po, 5 mg/kg, i.g. 5 mg/kg, second MRTINF line (r9)), 3.34 ± 0.52 h. The AUC(0-inf) was determined as 20600 ng·h/mL in data set [1] (iv, i.v. 2 mg/kg) and 19800 ng·h/mL in data set [1] (po, i.g. 5 mg/kg). Further, the AUC(0-t) was determined as 20500 ng·h/mL in data set [1] (iv, i.v. 2 mg/kg) and 19700 ng·h/mL in data set [1] (po, i.g. 5 mg/kg). Further, the Cmax in data set [1] (iv, i.v. 2 mg/kg) is 4800 ± 1200 ng/mL; in data set [1] (po, i.g. 5 mg/kg), 3020 ± 110 ng/mL. Further, the clearance in data set [1] (iv, i.v. 2 mg/kg) was found to be 1.63 ± 0.11 mL/min/kg. In addition, the Tmax in data set [1] (iv, i.v. 2 mg/kg) was determined as 0.25 h; in data set [1] (po, i.g. 5 mg/kg) it was 1.67 ± 0.58 h. Moreover, the bioavailability in data set [1] (oral, i.g. 5 mg/kg vs i.v. 2 mg/kg) was determined as 38%. In data set [1] (po, single intragastric administration of 5 mg/kg), this compound showed a half-life of 3.34 ± 0.52 h. Besides, the AUC in data set [1] (route not given) stood at 20600 ± 1500 ng·h/mL. In addition, in the data set with B cells, the “gene expression of activated B cell markers Cd19 and Cd86” value is recorded as “no significant change”.
